Data on one compound can be found in US20030114357A1, “Methods related to the A-C repeat Z-sequence upstream from the aldose reductase gene” (priority 2001, published 2003).

Assay [1] deals with subjects with painful, symmetrical polyneuropathy. Nature of the assay: Peroneal motor nerve conduction velocity (NCV), double-blind study placebo vs zopolrestat, 12 week change. To be noted: placebo vs combined treatment groups (250 and 500 mg zopolrestat dose). The class given is in vivo, human. An excerpt:
(§1) Diabetic neuropathy, a complication arising from diabetes mellitus, is an example of conditions that are mediated by having at least one allele of the (A-C)n repeat Z sequence associated with the aldose reductase gene wherein the value of n is less than 24. […] Such evaluation may be performed by measuring changes in nerve conduction velocity (NCV) in the following nerves: median motor, ulnar sensory, median sensory (both distal and proximal segments), peroneal motor and sural sensory. Testing is performed prior to the initiation of administration of the Agent and one or more times thereafter. An exemplary schedule for neuroelectrophysiology evaluation is prior to initiation of administration of the Agent and at weeks 12, 24 and 52 following initiation of administration.
(§2) Tables 1 and 2 illustrate the effect of administration of the aldose reductase inhibitor, zopolrestat, on NCV of subjects having one and two alleles of the Z sequence having less than 24 A-C repeats. […] The NCV results from Tables 1 and 2 where obtained according to the protocol described in Example 2 of the General Experimental Procedures.
(§3) The terms “1 short” and “2 short” as used in Tables 1 and 2 refers to the number of alleles found in each subject where n has a value of less than 24 for the (A-C)n repeat Z sequence. “1 short” refers to subjects having only one allele wherein n is less than 24. “2 short” refers to subjects having two alleles wherein n is less than 24. […]
Nerve Conduction Velocity (“NCV”) is defined as the maximal speed in which Compound Action Potentials are propagated within a nerve, generally reflecting the activity in the fastest and largest neurons and calculated in meters per second by dividing distance in mm by Latency. […]
3. […] Skin temperature is measured prior to and at the conclusion of testing at sites midway between the stimulating and recording electrodes for each limb. Temperature is monitored and adjusted during testing using either a feedback controlled infrared radiant heater, a water bath or a temperature controlled blanket wrap. […]

The test system is the same in assay [2]. Nature of the assay: Composite neuroelectrophysiology (NE) parameter (modified O'Brien score), double-blind study placebo vs zopolrestat, 12 week change. The class given is in vivo, human. To be noted: placebo vs combined treatment groups (250 and 500 mg zopolrestat dose).
Excerpt: as §1, §2
Composite NE parameter is calculated according to the technique described in O'Brien, P. C., Biometrics, 40, 1079-1087 (1984). For ease of interpretation, the standard composite NE parameter of O'Brien is slightly modified for Tables 1 and 2. The standard O'Brien method would give values of 0 to 1. For the modified O'Brien score, the standard O'Brien value is reduced by 0.5 to give a value in the range of −0.5 to 0.5 with an expected value of 0. Values lower than 0 correspond to an overall composite NE decrease relative to the entire patient population, while values greater than 0 correspond to a relative increase.
as §3

Turning to `O=C(O)Cc1nn(Cc2nc3cc(C(F)(F)F)ccc3s2)c(=O)c2ccccc12` [zopolrestat], the “Peroneal Motor 12 Week Change Mean Treatment Effect” value in assay [1] (Group 1 Short (subjects with only one Z-sequence allele n<24)) is 0.22; in assay [1] (Group 2 Short (subjects with two Z-sequence alleles n<24)), 2.35; in assay [1] (Group Combined (1 short + 2 short Z-sequence alleles, n<24), NCV, calculated in meters per second), 1.63. In addition, the “Composite NE Parameter (modified) 12 Week Change Mean Treatment Effect” value in assay [2] (Group 1 Short (only one Z-sequence allele n<24)) turned out to be 0.04; in assay [2] (Group 2 Short (two Z-sequence alleles n<24)), 0.09; in assay [2] (Group Combined, range -0.5 to 0.5), 0.07.
